Experimental data as given in patent US6864262B2, “1-(2-m-methanesulfonamidophenylethyl)-4-(m-trifluoromethylphenyl) piperazine and pharmaceutically acceptable salts and solvents thereof” (Eli Lilly and Company, priority 2000, dated 2005).
pKi: −log10 of the molar value.

Columns and labels:
[1] = tested on: Adult female cats; test: Transvesical cystometrograms and periurethral EMG in anesthetized cats, acetic acid infusion
Method: Adult female cats were anesthetized with alpha chloralose (50-75 mg/kg i.v.) One catheter was inserted into the carotid artery for measuring systemic blood pressure and heart rate. A second catheter was inserted in the radial vein for administering drugs. Following a midline laparotomy, the bladder was cannulated through the dome to allow infusion of fluids and recording of intravesical pressure. The urethra remained patent to allow expulsion of fluids during reflex micturition.
Transvesical cystometrograms (CMGs) were recorded by emptying the bladder, beginning infusion (0.5 ml/min) with saline, and noting the volume at which fluid release and bladder contraction occurred (i.e. micturition). This volume is defined as bladder capacity. EMG activity was recorded from the periurethral musculature with bipolar hook electrodes placed within 0.5 cm of the urethral meatus via an intravaginal approach. After establishing bladder capacity and EMG activity under conditions of saline infusion, the infusion cannula was switched to infuse 0.5% acetic acid solution and cystometry repeated.
Following cystometry, the bladder was allowed to continuously fill, which produced rhythmic bladder contractions accompanied by fluid release. During this time of rhythmic bladder activity, vehicle or drug was administered. Within 5 minutes, the bladder was emptied; another CMG was performed, and bladder capacity and EMG activity were again measured. The bladder was then continuously filled to produce rhythmic contractions with fluid release, and the frequency of these rhythmic contractions was measured over a fifteen minute period to record drug effects on contraction frequency. This procedure was repeated with increasing doses of drug to produce a cumulative dose response curve.
All other drugs were dissolved in saline.

[2] = target: T1, 5-HT1A (Homo sapiens, UniProt P08908); test: Binding affinity at cloned human serotonin receptors
T1 construct: expressed in transfected cells
T1 sequence (P08908 1-422): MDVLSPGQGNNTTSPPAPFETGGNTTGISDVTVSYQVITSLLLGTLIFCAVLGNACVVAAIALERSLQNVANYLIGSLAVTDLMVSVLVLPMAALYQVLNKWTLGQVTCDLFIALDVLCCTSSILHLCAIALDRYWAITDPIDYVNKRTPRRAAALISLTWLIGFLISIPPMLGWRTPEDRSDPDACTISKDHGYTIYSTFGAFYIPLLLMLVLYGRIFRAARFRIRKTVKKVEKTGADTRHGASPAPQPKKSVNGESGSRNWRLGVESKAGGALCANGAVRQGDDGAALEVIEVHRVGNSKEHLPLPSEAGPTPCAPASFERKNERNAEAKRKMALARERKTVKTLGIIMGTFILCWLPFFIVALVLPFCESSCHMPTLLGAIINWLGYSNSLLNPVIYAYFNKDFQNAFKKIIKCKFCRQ

[3] = target: T2, 5-HT1E (Homo sapiens, UniProt P28566); test: as above
T2 construct: expressed in transfected cells

[4] = target: T3, 5-HT7 (Homo sapiens, UniProt P34969); test: as above
T3 construct: expressed in transfected cells

[5] = target: T4, 5-HT1F (Homo sapiens, UniProt P30939); test: as above
T4 construct: expressed in transfected cells
T4 sequence (P30939 1-366): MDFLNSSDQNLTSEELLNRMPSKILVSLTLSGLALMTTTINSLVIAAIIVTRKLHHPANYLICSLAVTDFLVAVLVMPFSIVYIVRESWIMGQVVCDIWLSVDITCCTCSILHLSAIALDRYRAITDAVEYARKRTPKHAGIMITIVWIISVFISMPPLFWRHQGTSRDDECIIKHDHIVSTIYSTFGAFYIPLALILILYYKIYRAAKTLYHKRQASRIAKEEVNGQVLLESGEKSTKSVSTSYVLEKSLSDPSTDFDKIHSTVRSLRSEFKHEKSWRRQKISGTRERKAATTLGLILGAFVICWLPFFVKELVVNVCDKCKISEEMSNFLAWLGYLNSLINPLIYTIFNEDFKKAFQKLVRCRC

[6] = target: T5, 5-HT1D (Homo sapiens, UniProt P28221); test: as above
T5 construct: expressed in transfected cells

[7] = target: T6, 5-HT1B (Homo sapiens, UniProt P28222); test: as above
T6 construct: expressed in transfected cells

[8] = target: T1, 5-HT1A; test: Functional data in cloned human serotonin receptors; format: biochemical
[9] = target: T5, 5-HT1D; test: as above; format: biochemical
[10] = target: T6, 5-HT1B; test: as above; format: biochemical
[11] = target: T4, 5-HT1F; test: as above; format: biochemical
[12] = anesthetized cat, i.v., cumulative doses, acetic acid infusion
[13] = listed as compound of formula I
[14] = vs 1-(2-p-methanesulfonamidophenylethyl)-4-(m-trifluoromethylphenyl)piperazine

T5 sequence (P28221 whole entry): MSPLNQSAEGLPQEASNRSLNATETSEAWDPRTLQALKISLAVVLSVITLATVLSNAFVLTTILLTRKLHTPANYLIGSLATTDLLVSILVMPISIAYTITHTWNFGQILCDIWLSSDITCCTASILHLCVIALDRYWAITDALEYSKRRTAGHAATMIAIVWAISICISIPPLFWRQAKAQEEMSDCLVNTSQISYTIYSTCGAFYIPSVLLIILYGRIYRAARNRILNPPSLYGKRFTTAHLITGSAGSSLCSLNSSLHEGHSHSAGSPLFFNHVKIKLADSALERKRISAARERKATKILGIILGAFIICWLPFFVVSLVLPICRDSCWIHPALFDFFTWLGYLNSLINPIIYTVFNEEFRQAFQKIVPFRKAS
T6 sequence (P28222 whole entry): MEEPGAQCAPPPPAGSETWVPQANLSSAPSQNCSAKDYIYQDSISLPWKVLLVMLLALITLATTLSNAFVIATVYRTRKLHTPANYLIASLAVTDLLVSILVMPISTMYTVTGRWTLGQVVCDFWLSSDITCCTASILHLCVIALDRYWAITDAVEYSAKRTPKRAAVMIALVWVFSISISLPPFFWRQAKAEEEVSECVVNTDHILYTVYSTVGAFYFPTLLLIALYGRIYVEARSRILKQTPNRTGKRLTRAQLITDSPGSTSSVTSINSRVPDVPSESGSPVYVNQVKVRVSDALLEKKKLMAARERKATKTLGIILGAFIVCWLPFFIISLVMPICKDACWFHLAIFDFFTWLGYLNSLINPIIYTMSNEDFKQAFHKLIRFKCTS
T2 sequence (P28566 whole entry): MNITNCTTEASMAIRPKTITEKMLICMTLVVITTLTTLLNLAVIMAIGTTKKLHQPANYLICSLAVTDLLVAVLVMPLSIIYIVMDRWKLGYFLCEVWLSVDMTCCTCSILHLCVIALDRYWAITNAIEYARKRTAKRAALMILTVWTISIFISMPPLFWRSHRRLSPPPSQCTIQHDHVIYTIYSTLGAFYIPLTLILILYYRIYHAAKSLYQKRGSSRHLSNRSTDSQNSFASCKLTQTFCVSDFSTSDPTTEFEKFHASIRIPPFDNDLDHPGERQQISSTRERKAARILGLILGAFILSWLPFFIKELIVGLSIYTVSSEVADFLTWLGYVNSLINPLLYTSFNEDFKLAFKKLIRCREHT
T3 sequence (P34969 whole entry): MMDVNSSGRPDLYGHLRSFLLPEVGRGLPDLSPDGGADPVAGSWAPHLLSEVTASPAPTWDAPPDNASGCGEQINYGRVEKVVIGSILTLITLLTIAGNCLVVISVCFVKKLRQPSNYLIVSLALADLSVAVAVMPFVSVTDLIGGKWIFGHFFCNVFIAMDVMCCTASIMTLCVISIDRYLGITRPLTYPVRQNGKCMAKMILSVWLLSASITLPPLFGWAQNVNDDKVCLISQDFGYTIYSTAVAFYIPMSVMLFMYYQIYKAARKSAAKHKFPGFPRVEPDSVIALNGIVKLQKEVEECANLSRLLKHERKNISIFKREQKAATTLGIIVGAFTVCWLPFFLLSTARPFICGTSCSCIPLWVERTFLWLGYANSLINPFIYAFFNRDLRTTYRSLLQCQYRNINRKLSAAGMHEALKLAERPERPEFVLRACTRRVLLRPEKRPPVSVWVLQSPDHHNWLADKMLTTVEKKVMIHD

COc1ccccc1N1CCN(CCN(C(=O)C2CCCCC2)c2ccccn2)CC1 [WAY100635, reference compound]
reversal of hypotension, bradycardia, decrease in contraction frequency and increase in EMG activity induced by the compound of Formula I ([1]; anesthetized cat, WAY100635 given after compound of Formula I): partially reversed

CS(=O)(=O)Nc1cccc(CCN2CCN(c3cccc(C(F)(F)F)c3)CC2)c1.Cl
melting point: 198 to 199 °C

CS(=O)(=O)Nc1ccc(CCN2CCN(c3cccc(C(F)(F)F)c3)CC2)cc1 [1-(2-p-methanesulfonamidophenylethyl)-4-(m-trifluoromethylphenyl)piperazine, reference compound]
pKi [2]: 8.46
% displacement, 5-HT1E ([3]; @ 1000 nM): 5% @ 1000
pKi [4]: 7.35
% displacement, 5-HT1F ([5]; @ 1000 nM): 14% @ 1000
pKi [6]: 7.26
pKi [7]: 8.02

CN(C)CCc1c[nH]c2ccc(C[C@H]3COC(=O)N3)cc12 [zolmitriptan, reference compound]
bladder capacity [1, 12]: dose-dependent increases
external urethral sphincter (EUS) EMG activity [1, 12]: increase
frequency of micturition contractions [1, 12]: reduced

COc1ccc(CNC(=O)/C=C/c2ccc3[nH]cc(CCN(C)C)c3c2)cc1 [GR46611, reference compound]
bladder capacity [1, 12]: dose-dependent increases
external urethral sphincter (EUS) EMG activity [1, 12]: increase
frequency of micturition contractions [1, 12]: reduced

CS(=O)(=O)Nc1cccc(CCN2CCN(c3cccc(C(F)(F)F)c3)CC2)c1.O=C(O)C(=O)O
melting point: 164 °C

CS(=O)(=O)Nc1cccc(CCN2CCN(c3cccc(C(F)(F)F)c3)CC2)c1 [LY217101, 1-(2-m-methanesulfonamidophenylethyl)-4-(m-trifluoromethylphenyl)piperazine]
functional character at 5-HT1A ([8]; listed as Formula 1): Agonist
functional character at 5-HT1A [8, 13]: agonist
pKi [2]: 9.02
Emax [9]: 93.4%
functional character at 5-HT1D ([9]; listed as Formula 1): Agonist
functional character at 5-HT1D [9, 13]: agonist
Emax [10]: 88.2%
functional character at 5-HT1B ([10]; listed as Formula 1): Agonist
functional character at 5-HT1B [10, 13]: agonist
pKi [3]: 5.41
pKi [4]: 6.98
Emax [11]: 95.5%
pKi [5]: 7.49
EMG activity ([1]; LY217101 given after WAY100635): no longer produces
bladder capacity ([1]; LY217101 given after WAY100635): increase
bradycardia ([1]; LY217101 given after WAY100635): no longer produces
frequency of micturition contractions ([1]; LY217101 given after WAY100635): continued to reduce
hypotension ([1]; LY217101 given after WAY100635): no longer produces
bradycardia ([1]; anesthetized cat, i.v.): induced
hypotension ([1]; anesthetized cat, i.v.): induced
bladder capacity [1, 12]: dose-dependent increases
external urethral sphincter (EUS) EMG activity [1, 12]: increase
frequency of micturition contractions [1, 12]: reduced
pKi [6]: 8.92
fold higher affinity for the 5-HT1D receptor than the p-regioisomer [6, 14]: 45 fold
pKi [7]: 8.77
fold higher affinity for the 5-HT1B receptor than the p-regioisomer [7, 14]: 56 fold

COc1ccc(NC(=O)c2ccc(-c3ccc(-c4noc(C)n4)cc3C)cc2)cc1N1CCN(C)CC1 [GR127935, reference compound]
bladder capacity [1, 12]: dose-dependent increases
external urethral sphincter (EUS) EMG activity [1, 12]: increase
frequency of micturition contractions [1, 12]: reduced
